In PubChem BioAssay AID1963827 (Molecular Pharmacology Branch, DTP, NCI, 2024):

System: 994946-033-R-J1-PDC complex spheroid viability
Assay: Anticancer human tumor 994946-033-R-J1-PDC patient-derived melanoma cell line growth inhibition [POLQ]
Settings: for IC50: curve of first compound; for viability, T/C: stronger effect = lower value
Experimental: Multicellular complex tumor spheroid response to Polymerase (POL) inhibitors (novobiocin, ART-558, RP6685) in combination with a variety of drugs and investigational agents in selected tumor cell lines
The POL inhibitors (novobiocin, ART-558, and RP6685) were evaluated both individually and in combination with standard of care and investigational anticancer small molecules within a complex spheroid model of solid tumors. . Complex spheroids include a stromal component modeled by human endothelial cells (HUVEC) and fibroblasts modeled by human mesenchymal stem cells (MSCs). The concentration ranges selected for each drug and investigational agent were based upon clinically achievable concentrations if the clinical Cmax of the agent was known.
Compounds. The drugs and investigational agents: novobiocin (NSC847541), ART-558 (NSC835418), RP-6685 (NSC848927), peposertib (NSC802822), ceralasertib (NSC780249), elimusertib (NSC800525), camonsertib (NSC841442), AZD-1390 (NSC803789), olaparib (NSC753686), talazoparib (NSC767125), rucaparib (NSC756644), sotorasib (NSC818433), MRTX-1133 (NSC836407), SN-38 (NSC673596), topotecan (NSC609699), epotoside (NSC141540), doxorubicin (NSC123127), gemcitabine (NSC613327), 5-fluorouracil (NSC19893), paclitaxel (NSC125973), vemurafenib (NSC761431), MSA-2 (NSC828583), SN-011 (NSC837082), adavosertib (NSC754352), prexasertib (NSC758257), carboplatin (NSC241240) and oxaliplatin (NSC266046), were obtained from the National Cancer Institute (NCI) Developmental Therapeutics Program Chemical Repository (21). The FDA-approved anticancer drug set is available from the Developmental Therapeutics Program at https://dtp.cancer.gov/organization/dscb/obtaining/. […] The stock solutions were prepared in dimethyl sulfoxide (DMSO, Sigma-Aldrich, St. Louis, MO, cat. D2650), except for the platinum compounds which were prepared in saline (Quality Biological, Gaithersburg, MD, cat. 114-055-101), at 800-fold the tested concentration and stored at -70 degrees C prior to their use. All drugs and investigational agents were tested over a range starting from a high concentration at or near the clinical Cmax and decreasing in half-log increments. If the clinical Cmax for an agent had not been determined, the highest concentration tested was 10 microM, except for SN-38, which was tested at a high concentration of 1 microM.
Cell Culture. All cells were maintained in an incubator at 37 degrees C and 5% CO2 with 95% humidity. The PDC lines were cultured according to standard operating procedures established by the NCI PDMR (https://pdmr.cancer.gov). Table 3 of the manuscript, lists the cell lines along with the number of the three cell types plated to form the mct-spheroids and media for tumor cell growth. After thawing, all PDC lines, except 997537-175-T-J1-PDC and 415267-285-R-J2-PDC, were cultured in Matrigel-coated flasks prepared with a working solution of 1X Ham's F-12 nutrient mix, without supplementation (Thermo Fisher Scientific, cat. 11765054), 100 U/mL penicillin-streptomycin (Thermo Fisher Scientific, cat. 15140122), and 2.5% Matrigel (Corning Inc., Corning, NY, cat. 354248) for the first three passages. The two PDC lines 997537-175-T-J1-PDC and 415267-285-R-J2-PDC were cultured on uncoated flasks. The 857933-349-R-J2-PDC line was cultured in 6C/Colon 1B media containing advanced DMEM/F-12 (Thermo Fisher Scientific, cat. 12634028), 10 mM HEPES (Thermo Fisher Scientific, cat. 15630080), 1X GlutaMAX supplement (Thermo Fisher Scientific, cat. 35050061), 0.1 mg/mL primocin (InvivoGen, San Diego, CA, cat. ant-pm-2), 10% defined fetal bovine serum, heat inactivated (HyClone Laboratories Inc., Logan, UT, cat. SH30070.03HI), 50% L-WRN conditioned media (ATCC, cat. CRL-3276), 1.25 mM N-Acetyl-L-cysteine (Sigma-Aldrich, cat. A9165), 10 mM nicotinamide (Sigma-Aldrich, cat. N0636), 1X B-27 supplement (Thermo Fisher Scientific, cat. 17504044), 1X N-2 supplement (Thermo Fisher Scientific, cat. […]

[1] = second compound 0.0316 µM, first compound 0.0316 µM
[2] = second compound 0.0316 µM, first compound 0.1 µM
[3] = second compound 0.0316 µM, first compound 0.316 µM
[4] = second compound 0.0316 µM, first compound 1 µM
[5] = second compound 0.0316 µM, first compound 3.16 µM
[6] = second compound 0.0316 µM, first compound 10 µM
[7] = second compound 0.1 µM, first compound 0.0316 µM
[8] = second compound 0.1 µM, first compound 0.1 µM
[9] = second compound 0.1 µM, first compound 0.316 µM
[10] = second compound 0.1 µM, first compound 1 µM
[11] = second compound 0.1 µM, first compound 3.16 µM
[12] = second compound 0.1 µM, first compound 10 µM
[13] = second compound 0.316 µM, first compound 0.0316 µM
[14] = second compound 0.316 µM, first compound 0.1 µM
[15] = second compound 0.316 µM, first compound 0.316 µM
[16] = second compound 0.316 µM, first compound 1 µM
[17] = second compound 0.316 µM, first compound 3.16 µM
[18] = second compound 0.316 µM, first compound 10 µM
[19] = second compound 1 µM, first compound 0.0316 µM
[20] = second compound 1 µM, first compound 0.1 µM
[21] = second compound 1 µM, first compound 0.316 µM
[22] = second compound 1 µM, first compound 1 µM
[23] = second compound 1 µM, first compound 3.16 µM
[24] = second compound 1 µM, first compound 10 µM
[25] = second compound 3.16 µM, first compound 0.0316 µM
[26] = second compound 3.16 µM, first compound 0.1 µM
[27] = second compound 3.16 µM, first compound 0.316 µM
[28] = second compound 3.16 µM, first compound 1 µM
[29] = second compound 3.16 µM, first compound 3.16 µM
[30] = second compound 3.16 µM, first compound 10 µM
[31] = second compound 10 µM, first compound 0.0316 µM
[32] = second compound 10 µM, first compound 0.1 µM
[33] = second compound 10 µM, first compound 0.316 µM
[34] = second compound 10 µM, first compound 1 µM
[35] = second compound 10 µM, first compound 3.16 µM
[36] = second compound 10 µM, first compound 10 µM
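Also: spheroids exposed to drugs for 7 days.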
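For viability, T/C in this document: 100% = DMSO vehicle treated spheroids.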

SMILES: COc1cccc2c1C(=O)c1c(O)c3c(c(O)c1C2=O)CC(O)(C(=O)CO)CC3OC1CC(N)C(O)C(C)O1 (centres undefined) + COC1C(OC(N)=O)C(O)C(Oc2ccc3c(O)c(NC(=O)c4ccc(O)c(CC=C(C)C)c4)c(=O)oc3c2C)OC1(C)C
- IC50 (second compound 0.0316 µM): < 31.6 nM
- IC50 (second compound 0.1 µM): < 31.6 nM
- IC50 (second compound 0.316 µM): < 31.6 nM
- IC50 (second compound 1 µM): < 31.6 nM
- IC50 (second compound 3.16 µM): < 31.6 nM
- IC50 (second compound 10 µM): < 31.6 nM
- viability, T/C [1]: 30%
- viability, T/C [2]: 9.63%
- viability, T/C [3]: 3%
- viability, T/C [4]: 2.19%
- viability, T/C [5]: 0.88%
- viability, T/C [6]: 1.18%
- viability, T/C [7]: 38.2%
- viability, T/C [8]: 11.2%
- viability, T/C [9]: 1.88%
- viability, T/C [10]: 1.88%
- viability, T/C [11]: 1.36%
- viability, T/C [12]: 0.62%
- viability, T/C [13]: 29.7%
- viability, T/C [14]: 8.65%
- viability, T/C [15]: 5.33%
- viability, T/C [16]: 1.37%
- viability, T/C [17]: 0.61%
- viability, T/C [18]: 1.78%
- viability, T/C [19]: 38.5%
- viability, T/C [20]: 21.4%
- viability, T/C [21]: 2.96%
- viability, T/C [22]: 0.39%
- viability, T/C [23]: 0.88%
- viability, T/C [24]: 0.7%
- viability, T/C [25]: 29.7%
- viability, T/C [26]: 7.94%
- viability, T/C [27]: 3.1%
- viability, T/C [28]: 0.41%
- viability, T/C [29]: 0.77%
- viability, T/C [30]: 0.92%
- viability, T/C [31]: 29.2%
- viability, T/C [32]: 9.79%
- viability, T/C [33]: 2.2%
- viability, T/C [34]: 0.59%
- viability, T/C [35]: 1.28%
- viability, T/C [36]: 0.88%

SMILES: Nc1ccn(C2OC(CO)C(O)C2(F)F)c(=O)n1 (centres undefined) + COC1C(OC(N)=O)C(O)C(Oc2ccc3c(O)c(NC(=O)c4ccc(O)c(CC=C(C)C)c4)c(=O)oc3c2C)OC1(C)C
- IC50 (second compound 0.0316 µM): < 31.6 nM
- IC50 (second compound 0.1 µM): < 31.6 nM
- IC50 (second compound 0.316 µM): < 31.6 nM
- IC50 (second compound 1 µM): < 31.6 nM
- IC50 (second compound 3.16 µM): 35.4 nM
- IC50 (second compound 10 µM): < 31.6 nM
- viability, T/C [1]: 24.4%
- viability, T/C [2]: 9.96%
- viability, T/C [3]: 7.61%
- viability, T/C [4]: 7.06%
- viability, T/C [5]: 5.98%
- viability, T/C [6]: 1.31%
- viability, T/C [7]: 30.7%
- viability, T/C [8]: 9.93%
- viability, T/C [9]: 5.26%
- viability, T/C [10]: 7.92%
- viability, T/C [11]: 7.09%
- viability, T/C [12]: 2.72%
- viability, T/C [13]: 26.8%
- viability, T/C [14]: 7.23%
- viability, T/C [15]: 6.54%
- viability, T/C [16]: 6.27%
- viability, T/C [17]: 6.01%
- viability, T/C [18]: 3.92%
- viability, T/C [19]: 28.8%
- viability, T/C [20]: 4.66%
- viability, T/C [21]: 7.79%
- viability, T/C [22]: 8.09%
- viability, T/C [23]: 5.28%
- viability, T/C [24]: 2.12%
- viability, T/C [25]: 54.6%
- viability, T/C [26]: 7.74%
- viability, T/C [27]: 6.32%
- viability, T/C [28]: 6%
- viability, T/C [29]: 4.45%
- viability, T/C [30]: 1.73%
- viability, T/C [31]: 19.9%
- viability, T/C [32]: 7.37%
- viability, T/C [33]: 6.97%
- viability, T/C [34]: 6.33%
- viability, T/C [35]: 4.89%
- viability, T/C [36]: 2.82%
